From patent publication US20250092065A1, “2-(INDAZOL-5-YL)-6-(PIPERIDIN-4-YL)-1,7-NAPHTHYRIDINE DERIVATIVES AND RELATED COMPOUNDS AS MODULATORS FOR SPLICING NUCLEIC ACIDS AND FOR THE TREATMENT OF PROLIFERATIVE DISEASES” (REMIX THERAPEUTICS INC., priority 2022, published 2025)
Read-outs that look alike come from different tables or passages of the source.

How the values were obtained:
Format in all cases: cell-based, human
HTT mRNA = experiment: RT-qPCR splicing assay, HTT mRNA canonical (CJ) and alternative (AJ) junction; settings: Homo sapiens; for AC50: HTT alternative junction mRNA, read-out: HTT AJ (increase in AJ mRNA, AC50)
How it was run: (§1)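 Junction-specific RT-qPCR read-out: CJ and AJ isoform levels, housekeeper-normalized (GAPDH/GUSB/PPIA), ΔΔCt vs DMSO, converted to RQ then % response. Cells: A673 (DMEM/10% FBS, adhered 24 h) or K562 (IMDM/10% FBS). Compound 11-pt 3-fold, top 10 uM, 24 h, 37 °C.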

MYB mRNA = experiment: RT-qPCR splicing assay, MYB mRNA canonical (CJ) and alternative (AJ) junction; settings: Homo sapiens; for AC50: MYB alternative junction mRNA, read-out: MYB AJ (increase in AJ mRNA, AC50)
How it was run: as §1

HTT = experiment: HiBiT protein abundance assay, HTT (K562 HiBiT knock-in); settings: HiBiT knock-in K562 cells, 24 hours, top dose 10 μM
How it was run: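 Luminescence readout: Nano-Glo HiBiT lytic detection after 24 h compound exposure of K562 HiBiT knock-in cells, 10000 cells/well. Dosing 10-pt, 3-fold, top 10 μM final. % response vs untreated parental K562 and DMSO controls; 4PL fit, IC50 = concentration giving 50% protein abundance.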

[1] = HTT canonical junction mRNA, RT-qPCR, read-out: HTT CJ (decrease in CJ mRNA levels, IC50)
[2] = canonical junction qPCR panel, Table 4, read-out: HTT IC50 (decrease in CJ mRNA levels)
[3] = MYB canonical junction mRNA, RT-qPCR, read-out: MYB CJ (decrease in CJ mRNA levels, IC50)
[4] = canonical junction qPCR panel, Table 4, read-out: MYB IC50 (decrease in CJ mRNA levels)

Compound	IC50 (HTT mRNA; [1]) [nM]	IC50 (HTT mRNA; [2]) [nM]	IC50 (MYB mRNA; [3]) [nM]	IC50 (MYB mRNA; [4]) [nM]	IC50 (HTT) [nM]	AC50 (HTT mRNA; RT-qPCR) [nM]	AC50 (MYB mRNA; RT-qPCR) [nM]
Cc1nc2c(C)c(O)c(-c3ccc4nc(N5CC[C@H](NC(C)(C)C)C5)ccc4n3)cc2o1 [Compound 214]	< 100	< 100	100 to 1000	100 to 1000	< 100	< 100	100 to 1000
Cc1nc2c(C)c(O)c(-c3ccc4nc(N5CC[C@H](NC6CC6)C5)ccc4n3)cc2o1 [Compound 216]	< 100	< 100	< 100	< 100	< 100	< 100	< 100
Cc1nc2c(C)c(O)c(-c3ccc4nc(N5CC[C@@H](NC6CC6)C5)ccc4n3)cc2o1 [Compound 217]	< 100	< 100	< 100	< 100	< 100	< 100	< 100
Cn1cc2cc(-c3ccc4nc(N5CCC(NC6(C)CC6)C5)ccc4n3)c(O)cc2n1 (stereo not shown) [Compound 219]	< 100	< 100	< 100	< 100	< 100	< 100	< 100
Cc1nc2cc(O)c(-c3ccc4nc(N5CC[C@@H](NC6CCC6)C5)ccc4n3)cc2o1 [Compound 229]	< 100	< 100	< 100	< 100	< 100	< 100	< 100
Cc1nc2cc(O)c(-c3ccc4nc(N5CC[C@H](NC6CCC6)C5)ccc4n3)cc2o1 [Compound 230]	< 100	< 100	100 to 1000	100 to 1000	< 100	< 100	100 to 1000
Cc1nc2cc(O)c(-c3ccc4nc(N5CCC(NC(C)C)C5)ccc4n3)cc2o1 (stereo not shown) [Compound 231]	< 100	< 100	< 100	< 100	< 100	< 100	< 100
Cc1nc2c(C)c(O)c(-c3ccc4nc(N5CCC(NC6CCC6)C5)ccc4n3)cc2o1 (stereo not shown) [Compound 235]	< 100	< 100	< 100	< 100	< 100	< 100	< 100
Cc1nc2c(C)c(O)c(-c3ccc4nc(N5CC[C@@H](NC6CCC6)C5)ccc4n3)cc2o1 [Compound 236]	< 100	< 100	< 100	< 100	< 100	< 100	< 100
Cc1nc2c(C)c(O)c(-c3ccc4nc(N5CC[C@H](NC6CCC6)C5)ccc4n3)cc2o1 [Compound 237]	< 100	< 100	< 100	< 100	< 100	< 100	< 100
Cc1cc(-c2ccc3nc(N4CCC(NC(C)(C)C)C4)ccc3n2)nc2cn(C)nc12 (stereo not shown) [Compound 248]	1000 to 10000	1000 to 10000	1000 to 10000	1000 to 10000	100 to 1000	100 to 1000	1000 to 10000
Cc1c(O)c(-c2ccc3nc(N4CC[C@@H](NC(C)(C)C)C4)ccc3n2)cc2cn(C)nc12 [Compound 249]	< 100	< 100	< 100	< 100	< 100	< 100	< 100
Cc1c(O)c(-c2ccc3nc(N4CC[C@H](NC(C)(C)C)C4)ccc3n2)cc2cn(C)nc12 [Compound 250]	< 100	< 100	< 100	< 100	< 100	< 100	< 100
COc1c(-c2ccc3nc(N4CCC(NC(C)(C)C)C4)ccc3n2)cc2c[nH]nc2c1C (stereo not shown) [Compound 251]	> 10000	> 10000	> 10000	> 10000	> 10000	> 10000	> 10000
Cc1cn2nc(-c3ccc4nc(N5CCC(NC6CC6)C5)ccc4n3)c(O)c2c(C)n1 (stereo not shown) [Compound 252]	< 100	< 100	100 to 1000	100 to 1000	100 to 1000	100 to 1000	100 to 1000
Cc1c(O)c(-c2ccc3nc(N4CCC(NCC5CC5)C4)ccc3n2)cc2cn(C)nc12 (stereo not shown) [Compound 284, 5-(6-{3-[(cyclopropylmethyl)amino]pyrrolidin-1-yl}-1,5-naphthyridin-2-yl)-2,7-dimethylindazol-6-ol]	< 100	< 100	< 100	< 100	< 100	< 100	100 to 1000

More lines, main results first:

IC50 (HTT mRNA; [1]) [nM]	IC50 (HTT mRNA; [2]) [nM]	IC50 (MYB mRNA; [3]) [nM]	IC50 (MYB mRNA; [4]) [nM]	IC50 (HTT) [nM]	Compound	AC50 (HTT mRNA; RT-qPCR) [nM]	AC50 (MYB mRNA; RT-qPCR) [nM]
< 100	< 100	< 100	< 100	< 100	Cc1nc2c(F)c(O)c(-c3ccc4nc(N5CC[C@@H](NCC6CC6)C5)ccc4n3)cc2o1 (single isomer, unassigned) [Compound 323]	< 100	< 100
< 100	< 100	< 100	< 100	< 100	Cc1nc2c(F)c(O)c(-c3ccc4nc(N5CC[C@H](NCC6CC6)C5)ccc4n3)cc2o1 (single isomer, unassigned) [Compound 324]	< 100	< 100
< 100	< 100	< 100	< 100	< 100	Cc1nc2c(F)c(O)c(-c3ccc4nc(N5CC[C@@H](NC(C)C)C5)ccc4n3)cc2o1 (single isomer, unassigned) [Compound 329]	< 100	< 100
< 100	< 100	< 100	< 100	< 100	Cc1nc2c(F)c(O)c(-c3ccc4nc(N5CC[C@H](NC(C)C)C5)ccc4n3)cc2o1 (single isomer, unassigned) [Compound 330]	< 100	< 100
< 100	< 100	< 100	< 100	< 100	Cn1cc2cc(-c3ccc4nc(N5CC[C@H](N[C@H]6C[C@H](F)C6)C5)ccc4n3)c(O)c(F)c2n1 (single isomer, unassigned) [Compound 347]	< 100	< 100
100 to 1000	100 to 1000	< 100	< 100	< 100	Cc1nc2cc(O)c(-c3ccc4nc(N5CC[C@@H](N[C@H]6C[C@H](F)C6)C5)ccc4n3)cc2o1 (single isomer, unassigned) [Compound 348]	100 to 1000	< 100
< 100	< 100	< 100	< 100	< 100	Cn1cc2cc(-c3ccc4nc(N5CC[C@@H](N[C@H]6C[C@H](F)C6)C5)ccc4n3)c(O)c(F)c2n1 (single isomer, unassigned) [Compound 349]	< 100	< 100
< 100	< 100	< 100	< 100	< 100	Cc1nc2c(C)c(O)c(-c3ccc4nc(N5CC[C@H](N[C@H]6C[C@H](F)C6)C5)ccc4n3)cc2o1 (single isomer, unassigned) [Compound 351]	< 100	< 100
< 100	< 100	< 100	< 100	< 100	Cc1nc2c(C)c(O)c(-c3ccc4nc(N5CC[C@@H](N[C@H]6C[C@H](F)C6)C5)ccc4n3)cc2o1 (single isomer, unassigned) [Compound 352]	< 100	< 100
< 100	< 100	< 100	< 100	< 100	Cc1nc2c(F)c(O)c(-c3ccc4nc(N5CC[C@@H](NC6(C)CC6)C5)ccc4n3)cc2o1 (stereo in doubt) [Compound 326, 4-fluoro-2-methyl-6-{6-[(3 S)-3-[(1-methylcyclopropyl)amino]pyrrolidin-1-yl]-1,5-naphthyridin-2-yl}-1,3-benzoxazol-5-ol]	< 100	< 100
< 100	< 100	< 100	< 100	< 100	Cc1nc2c(F)c(O)c(-c3ccc4nc(N5CCC(NC6(C)CC6)C5)ccc4n3)cc2o1 (stereo in doubt) [Compound 327, 4-fluoro-2-methyl-6-{6-[(3R)-3-[(1-methylcyclopropyl)amino]pyrrolidin-1-yl]-1,5-naphthyridin-2-yl}-1,3-benzoxazol-5-ol]	< 100	< 100
< 100	< 100	< 100	< 100	< 100	Cc1c(O)c(-c2ccc3nc(N4CCC(NC5CCC5)C4)ccc3n2)cc2cn(C)nc12 (stereo not shown) [Compound 288, 5-{6-[3-(cyclobutylamino)pyrrolidin-1-yl]-1,5-naphthyridin-2-yl}-2,7-dimethylindazol-6-ol]	< 100	< 100
